In ChEMBL document CHEMBL5113529, “Design, Synthesis, and Biological Evaluation of Dual-Target COX-2/CYP51 Inhibitors for the Treatment of Fungal Infectious Diseases” (J Med Chem, 2022):
≈ marks a conversion by molar mass, not a printed value. Calls of active or inactive are those of the source. The rule behind the calls is not given here.

Columns and labels:
[1] = Toxicity in mouse infected with Candida albicans assessed as AST level in plasma at 10 ug per 20 g, ip administered on day 2, 4, 6, 8, 10 and 12 and measured on day 14 (reference value: 74.9 +/- 6.7 IU/L); assay type: organism-based; settings: in vivo, 336 h, dose 10 µg, time 14 day
Candida albicans [2] = experiment: Antifungal activity against fluconazole- resistant Candida albicans 17# assessed as fungal growth inhibition measured after 72 hrs by double dilution method; assay type: functional
Candida albicans [3] = experiment: Antifungal activity against fluconazole -resistant Candida albicans 904 assessed as fungal growth inhibition measured after 72 hrs by double dilution method; assay type: functional
Candida albicans [4] = experiment: Induction of apoptosis in Candida albicans ATCC SC5314 assessed as late apoptotic cells incuabted for 24 hrs by V-FITC/PI staining based flow cytometry analysis (reference value: 0.36%); assay type: functional
Mus musculus [5] = organism: Mus musculus; experiment: Immunostimulatory activity in mouse infected with Candida albicans ATCC SC5314 assessed as increase in CD8+ expression level in spleen by immunohistochemical analysis; assay type: functional
Cryptococcus neoformans = experiment: Antifungal activity against Cryptococcus neoformans ZKCC 2209 assessed as fungal growth inhibition measured after 72 hrs by double dilution method; assay type: functional
[6] = target: T1, Lanosterol 14-alpha demethylase (Candida albicans (strain SC5314 / ATCC MYA-2876) (Yeast), UniProt P10613); experiment: Inhibition of CYP51 in Candida albicans ATCC SC5314 assessed as eburicol level at 4 ug/ml incuabted for 48 hrs by GC-MS analysis (reference value: 1.05%); design: scale not given: the % may be the effect or the level left; settings: at 4 µg/mL
T1 sequence (P10613 whole entry): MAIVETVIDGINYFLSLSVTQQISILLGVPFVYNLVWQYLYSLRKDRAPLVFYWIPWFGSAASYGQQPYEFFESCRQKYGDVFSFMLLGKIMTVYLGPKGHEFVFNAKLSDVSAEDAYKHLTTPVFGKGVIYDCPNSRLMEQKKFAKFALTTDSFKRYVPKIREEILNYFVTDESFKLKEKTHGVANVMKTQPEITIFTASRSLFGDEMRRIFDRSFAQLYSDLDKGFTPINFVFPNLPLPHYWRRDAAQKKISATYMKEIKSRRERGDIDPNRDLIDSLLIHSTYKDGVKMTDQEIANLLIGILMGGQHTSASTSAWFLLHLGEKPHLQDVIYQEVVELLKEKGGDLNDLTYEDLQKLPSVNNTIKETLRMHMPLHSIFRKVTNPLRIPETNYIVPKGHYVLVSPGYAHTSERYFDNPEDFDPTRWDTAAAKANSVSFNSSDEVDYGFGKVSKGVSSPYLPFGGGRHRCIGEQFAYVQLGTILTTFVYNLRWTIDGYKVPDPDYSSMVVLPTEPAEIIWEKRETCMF

Candida albicans [7] = experiment: Antifungal activity against Candida albicans ATCC SC5314 assessed as decrease in fungal cell density measured immediately by fluorescence microscopy (reference value: 126%); assay type: functional; design: scale not given: the % may be the effect or the level left
Candida albicans [8] = experiment: Induction of mitochondrial membrane potential loss in Candida albicans ATCC SC5314 assessed as normal cells at 1 umol/ml incubated for 24 hrs by JC-1 staining based flow cytometry assay (reference value: 95.26%); assay type: functional; settings: dose 1 µmol/L, at 1 µM
Candida albicans [9] = experiment: Antifungal activity against Candida albicans ATCC SC5314 assessed as decrease in fungal cell density measured at 48 hrs by fluorescence microscopy (reference value: 258%); assay type: functional; design: scale not given: the % may be the effect or the level left
Candida albicans [10] = experiment: Induction of apoptosis in Candida albicans ATCC SC5314 assessed as mid apoptotic cells incuabted for 24 hrs by V-FITC/PI staining based flow cytometry analysis (reference value: 1.09%); assay type: functional
Candida albicans [11] = experiment: Induction of apoptosis in Candida albicans ATCC SC5314 assessed as normal cells incuabted for 24 hrs by V-FITC/PI staining based flow cytometry analysis (reference value: 96.78%); assay type: functional
[12] = target: T1, Lanosterol 14-alpha demethylase; experiment: Inhibition of CYP51 in Candida albicans ATCC SC5314 assessed as ergosterol level at 4 ug/ml incuabted for 48 hrs by GC-MS analysis (reference value: 96.48%); design: scale not given: the % may be the effect or the level left; settings: at 4 µg/mL
Mus musculus [13] = organism: Mus musculus; experiment: Antiinflammatory activity against mouse infected with Candida albicans ATCC SC5314 assessed as reduction in COX-2 expression in spleen by Western blot analysis; assay type: functional; design: scale not given: the % may be the effect or the level left
Candida albicans [14] = experiment: Antifungal activity against fluconazole -resistant Candida albicans 632 assessed as fungal growth inhibition measured after 72 hrs by double dilution method; assay type: functional
Mus musculus [15] = organism: Mus musculus; experiment: Immunostimulatory activity in mouse infected with Candida albicans ATCC SC5314 assessed as reduction in PD-L1 expression in spleen by western blot analysis relative to control; assay type: functional; design: scale not given: the % may be the effect or the level left
Candida albicans [16] = experiment: Antifungal actvity against Candida albicans ATCC SC5314 infected in mouse assessed as reduction in fungal infection at 10 ug per 20 g, ip administered on day 2, 4, 6, 8, 10 and 12 and measured on day 14; assay type: functional, organism-based; settings: dose 10.0 µg, time 14.0 day
Candida albicans [17] = experiment: Antifungal activity against fluconazole -resistant Candida albicans CaR assessed as fungal growth inhibition measured after 72 hrs by double dilution method; assay type: functional
Candida albicans [18] = experiment: Induction of mitochondrial membrane potential loss in Candida albicans ATCC SC5314 assessed as depolarized cells at 1 umol/ml incubated for 24 hrs by JC-1 staining based flow cytometry assay (reference value: 0.76 to 3.29%); assay type: functional; settings: dose 1 µmol/L, at 1 µM
Mus musculus [19] = organism: Mus musculus; experiment: Immunostimulatory activity in mouse infected with Candida albicans ATCC SC5314 assessed as increase in CD3+ expression level in spleen by immunohistochemical analysis; assay type: functional
Candida albicans [20] = experiment: Antifungal activity against Candida albicans ATCC SC5314 assessed as fungal growth inhibition measured after 72 hrs by double dilution method; assay type: functional
[21] = target: T1, Lanosterol 14-alpha demethylase; experiment: Inhibition of CYP51 in Candida albicans ATCC SC5314 assessed as lanosterol level at 4 ug/ml incuabted for 48 hrs by GC-MS analysis relative to control; design: scale not given: the % may be the effect or the level left; settings: at 4 µg/mL
[22] = target: T1, Lanosterol 14-alpha demethylase; experiment: Inhibition of CYP51 in Candida albicans SC5314 using Eburicol as substrate preincubated for 20 mins followed by substrate addition and measured after 4 mins by HPLC analysis; assay type: single protein
Candida albicans [23] = experiment: Induction of apoptosis in Candida albicans ATCC SC5314 assessed as necrotic cells incuabted for 24 hrs by V-FITC/PI staining based flow cytometry analysis (reference value: 1.77%); assay type: functional
[24] = target: T1, Lanosterol 14-alpha demethylase; experiment: Inhibition of CYP51 in Candida albicans ATCC SC5314 assessed as unknown sterol level at 4 ug/ml incuabted for 48 hrs by GC-MS analysis (reference value: 2.47%); design: scale not given: the % may be the effect or the level left; settings: at 4 µg/mL
Aspergillus fumigatus = experiment: Antifungal activity against Aspergillus fumigatus KM8001 assessed as fungal growth inhibition measured after 72 hrs by double dilution method; assay type: functional
[25] = Toxicity in mouse infected with Candida albicans assessed as ALT level in plasma at 10 ug per 20 g, ip administered on day 2, 4, 6, 8, 10 and 12 and measured on day 14 (reference value: 43.6 +/- 4.4 IU/L); assay type: organism-based; settings: in vivo, 336 h, dose 10 µg, time 14 day
Pichia kudriavzevii = experiment: Antifungal activity against Candida krusei ATCC 6258 assessed as fungal growth inhibition measured after 72 hrs by double dilution method; assay type: functional
Candida albicans [26] = experiment: Antifungal activity against fluconazole -resistant Candida albicans 901 assessed as fungal growth inhibition measured after 72 hrs by double dilution method; assay type: functional
[27] = Toxicity in mouse infected with Candida albicans assessed as BUN level in plasma at 10 ug per 20 g, ip administered on day 2, 4, 6, 8, 10 and 12 and measured on day 14 (reference value: 8.2 +/- 0.5 mmol/L); assay type: organism-based; settings: in vivo, 336 h, dose 10 µg, time 14 day
Candida albicans [28] = experiment: Induction of mitochondrial membrane potential loss in Candida albicans ATCC SC5314 assessed as polarized cells at 1 umol/ml incubated for 24 hrs by JC-1 staining based flow cytometry assay (reference value: 0.69%); assay type: functional; settings: dose 1 µmol/L, at 1 µM
Candida tropicalis = experiment: Antifungal activity against Candida tropicalis ATCC 1369 assessed as fungal growth inhibition measured after 72 hrs by double dilution method; assay type: functional
Candida albicans [29] = experiment: Antifungal activity against Candida albicans ATCC SC5314 assessed as induction of ROS production by measuring fluorescence intensity incubated for 12 hrs by KGT010-1 staining based fluorescence microscopy; assay type: functional, organism-based

With COc1ccc2cc([C@H](C)C(=O)NC(Cn3cncn3)C(=O)c3ccccc3)ccc2c1 (stereo partly drawn) the Activity [1] was 75.1 IU/L, the MIC50 (Candida albicans [2]) was 1 µg/mL (≈ 2.33 µM) and the MIC50 (Candida albicans [3]) was 2 µg/mL (≈ 4.67 µM). The Activity (Candida albicans [4]) was 22.73%, the Activity (Mus musculus [5]) was “Active” and the MIC50 (Cryptococcus neoformans) was 0.125 µg/mL (≈ 0.292 µM). It also gave an Activity [6] of 35.68%, an Activity (Candida albicans [7]) of 115% and an Activity (Candida albicans [8]) of 44.19%. The Activity (Candida albicans [9]) was 62%, the Activity (Candida albicans [10]) was 14.76% and the Activity (Candida albicans [11]) was 50.92%. The Activity [12] was 8.62%, the Activity (Mus musculus [13]) was 11.32% and the MIC50 (Candida albicans [14]) was 4 µg/mL (≈ 9.34 µM). The Activity (Mus musculus [15]) was 12.36%, the Activity (Candida albicans [16]) was “Active” and the MIC50 (Candida albicans [17]) was 1 µg/mL (≈ 2.33 µM). For the same molecule, the Activity (Candida albicans [18]) was 3.14%, the Activity (Mus musculus [19]) was “Active” and the MIC50 (Candida albicans [20]) was 0.25 µg/mL (≈ 0.583 µM). The Activity [21] was 46.09%, the IC50 [22] was 0.08 µM and the Activity (Candida albicans [23]) was 11.59%. For the same molecule, the Activity [24] was 9.61%, the MIC50 (Aspergillus fumigatus) was 2 µg/mL (≈ 4.67 µM) and the Activity [25] was 39.4 IU/L. The MIC50 (Pichia kudriavzevii) was 0.25 µg/mL (≈ 0.583 µM), the MIC50 (Candida albicans [26]) was 1 µg/mL (≈ 2.33 µM) and the Activity [27] was 10.5 mmol/L. It also gave an Activity (Candida albicans [28]) of 0.81% and an MIC50 (Candida tropicalis) of 0.125 µg/mL (≈ 0.292 µM).

In the case of OC(Cn1cncn1)(Cn1cncn1)c1ccc(F)cc1F [FLUCONAZOLE], the Activity [1] is reported as 81.6 IU/L, the MIC50 (Candida albicans [2]) is reported as > 8 µg/mL and the MIC50 (Candida albicans [3]) is reported as > 8 µg/mL. The Activity (Candida albicans [4]) was 1.56%, the Activity (Mus musculus [5]) was 2.5 and the MIC50 (Cryptococcus neoformans) was 0.5 µg/mL (≈ 1.63 µM). It also gave an Activity [6] of 40.24%, an Activity (Candida albicans [7]) of 119% and an Activity (Candida albicans [8]) of 81.14%. It also gave an Activity (Candida albicans [9]) of 75%, an Activity (Candida albicans [10]) of 0.4% and an Activity (Candida albicans [11]) of 68.17%. For the same molecule, the Activity [12] was 13.19%, the Activity (Mus musculus [13]) was 47.23% and the MIC50 (Candida albicans [14]) was > 8 µg/mL. The Activity (Mus musculus [15]) was 31.81%, the Activity (Candida albicans [16]) was “Active” and the Activity (Candida albicans [29]) was “Active”. For the same molecule, the MIC50 (Candida albicans [17]) was > 8 µg/mL, the Activity (Candida albicans [18]) was 0.37% and the Activity (Mus musculus [19]) was 2.5. It also gave an MIC50 (Candida albicans [20]) of 0.5 µg/mL (≈ 1.63 µM), an Activity [21] of 35.17% and an IC50 [22] of 0.14 µM. The Activity (Candida albicans [23]) was 29.87%, the Activity [24] was 11.4% and the MIC50 (Aspergillus fumigatus) was > 8 µg/mL. The Activity [25] was 37.5 IU/L, the MIC50 (Pichia kudriavzevii) was 1 µg/mL (≈ 3.27 µM) and the MIC50 (Candida albicans [26]) was > 8 µg/mL. For the same molecule, the Activity [27] was 9.7 mmol/L, the Activity (Candida albicans [28]) was 0.39% and the MIC50 (Candida tropicalis) was 0.5 µg/mL (≈ 1.63 µM).

Work on CC(C)NC(=O)[C@@H](Cn1ccnc1)NC(=O)[C@@H](C)c1cccc(C(=O)c2ccccc2)c1 yielded an Activity [1] of 69.8 IU/L, an MIC50 (Candida albicans [2]) of 2 µg/mL (≈ 4.62 µM) and an MIC50 (Candida albicans [3]) of 4 µg/mL (≈ 9.25 µM). For the same molecule, the Activity (Candida albicans [4]) was 12.5%, the Activity (Mus musculus [5]) was “Active” and the MIC50 (Cryptococcus neoformans) was 0.5 µg/mL (≈ 1.16 µM). The Activity [6] was 37.35%, the Activity (Candida albicans [7]) was 121% and the Activity (Candida albicans [8]) was 62.2%. It also gave an Activity (Candida albicans [9]) of 72%, an Activity (Candida albicans [10]) of 2.81% and an Activity (Candida albicans [11]) of 53.73%. The Activity [12] was 11.27%, the Activity (Mus musculus [13]) was 18.41% and the MIC50 (Candida albicans [14]) was 4 µg/mL (≈ 9.25 µM). The Activity (Mus musculus [15]) was 9.84%, the Activity (Candida albicans [16]) was “Active” and the Activity (Candida albicans [29]) was “Active”. The MIC50 (Candida albicans [17]) was 1 µg/mL (≈ 2.31 µM), the Activity (Candida albicans [18]) was 0.76% and the Activity (Mus musculus [19]) was “Active”. For the same molecule, the MIC50 (Candida albicans [20]) was 0.125 µg/mL (≈ 0.289 µM), the Activity [21] was 39.58% and the IC50 [22] was 0.15 µM. The Activity (Candida albicans [23]) was 30.96%, the Activity [24] was 11.8% and the MIC50 (Aspergillus fumigatus) was 2 µg/mL (≈ 4.62 µM). It also gave an Activity [25] of 41.2 IU/L, an MIC50 (Pichia kudriavzevii) of 0.25 µg/mL (≈ 0.578 µM) and an MIC50 (Candida albicans [26]) of 2 µg/mL (≈ 4.62 µM). The Activity [27] was 12.1 mmol/L, the Activity (Candida albicans [28]) was 0.39% and the MIC50 (Candida tropicalis) was 0.5 µg/mL (≈ 1.16 µM).
